Test results published in patent publication US10988485B2 (Amgen Inc., priority 2018, dated 2021).
Like-named read-outs stand apart in the source and are kept apart here.

Assays:
[1] = biological target: GDP-bound KRAS protein (aa 1-169), containing both G12C and C118A amino acid substitutions (Homo sapiens, UniProt P01116, C118A/G12C); assay: Coupled Nucleotide Exchange Assay (SOS-mediated nucleotide exchange, AlphaScreen); assay type: biochemical; settings: compound pre-incubation either 5 min or 2 hours (not stated per compound); SOS and GTP added, cRAF AlphaScreen read-out
Sequence of GDP-bound KRAS protein (aa 1-169), containing both G12C and C118A amino acid substitutions (P01116 1-169 isoform P01116-2 G12C/C118A): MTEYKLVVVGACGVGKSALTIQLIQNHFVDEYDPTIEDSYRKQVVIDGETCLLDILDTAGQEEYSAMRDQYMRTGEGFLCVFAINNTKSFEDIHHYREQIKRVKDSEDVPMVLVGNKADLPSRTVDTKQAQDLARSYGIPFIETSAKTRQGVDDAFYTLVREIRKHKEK
Protocol: (§1) For compounds in Table 6, the following assay conditions were employed:
Coupled Nucleotide Exchange Assay: Purified GDP-bound KRAS protein (aa 1-169), containing both G12C and C118A amino acid substitutions and an N-terminal His-tag, was pre-incubated in assay buffer (25 mM HEPES pH 7.4, 10 mM MgCl2, and 0.01% Triton X-100) with a compound dose-response titration for either 5 min or 2 hours (see Table 15). Following compound pre-incubation, purified SOS protein (aa 564-1049) and GTP (Roche 10106399001) were added to the assay wells and incubated for an additional 30 min (for 5 min compound pre-incubation) or 1 hour (for 2 hour compound pre-incubation). To determine the extent of inhibition of SOS-mediated nucleotide exchange, purified GST-tagged cRAF (aa 1-149), nickel chelate AlphaLISA acceptor beads (PerkinElmer AL108R), and AlphaScreen glutathione donor beads (PerkinElmer 6765302) were added to the assay wells and incubated for 10 minutes. The assay plates were then read on a PerkinElmer EnVision Multilabel Reader, using AlphaScreen® technology, and data were analyzed using a 4-parameter logistic model to calculate IC50 values.

[2] = test system: Phosphorylation of ERK1/2 in MIA PaCa-2 cells; assay: Phospho-ERK1/2 MSD Assay; assay type: cell-based; settings: compound 2 or 4 hours, then 10 ng/mL EGF for 10 min, read-out: p-ERK IC50 (MIA-PaCa-2) (converted)
Protocol: as §1
Phospho-ERK1/2 MSD Assay: MIA PaCa-2 (ATCC® CRL-1420™) cells were cultured in RPMI 1640 Medium (ThermoFisher Scientific 11875093) containing 10% fetal bovine serum (ThermoFisher Scientific 16000044) and 1× penicillin-streptomycin-glutamine (ThermoFisher Scientific 10378016). Sixteen hours prior to compound treatment, MIA PaCa-2 cells were seeded in 96-well cell culture plates at a density of 25,000 cells/well and incubated at 37° C., 5% CO2. A compound dose-response titration was diluted in growth media, added to appropriate wells of a cell culture plate, and then incubated at 37° C., 5% CO2 for 2 or 4 hours. Following compound treatment, cells were stimulated with 10 ng/mL EGF (Roche 11376454001) for 10 min, washed with ice-cold Dulbecco's phosphate-buffered saline, no Ca^2+ or Mg^2+ (ThermoFisher Scientific 14190144), and then lysed in RIPA buffer (50 mM Tris-HCl pH 7.5, 1% Igepal, 0.5% sodium deoxycholate, 150 mM NaCl, and 0.5% sodium dodecyl sulfate) containing protease inhibitors (Roche 4693132001) and phosphatase inhibitors (Roche 4906837001). Phosphorylation of ERK1/2 in compound-treated lysates was assayed using Phospho-ERK1/2 Whole Cell Lysate kits (Meso Scale Discovery K151DWD) according to the manufacturer's protocol. Assay plates were read on a Meso Scale Discovery Sector imager 6000, and data were analyzed using a 4-parameter logistic model to calculate IC50 values.

[3] = Homo sapiens, MIA PaCa-2, MIA PaCa-2 cells

Structure (SMILES)	IC50 [1]	IC50 [2, 3]	IC50 ([2]; MIA PaCa-2 cells)
C=CC(=O)N1C[C@H](C)N(C2=NS(=O)(=O)N(c3scnc3C(C)C)c3nc(-c4c(O)cccc4F)c(Cl)cc32)C[C@H]1C [Example 1-5, 1-((2R,5S)-4-(6-chloro-7-(2-fluoro-6-hydroxyphenyl)-2,2-dioxido-1-(4-(2-propanyl)-1,3-thiazol-5-yl)-1H-pyrido[2,3-c][1,2,6]thiadiazin-4-yl)-2,5-dimethyl-1-piperazinyl)-2-propen-1-one]	100 nM	110 nM	–
C=CC(=O)N1C[C@H](C)N(C2=NS(=O)(=O)N(c3ccccc3C(C)(C)C)c3nc(-c4ccccc4F)c(Cl)cc32)C[C@H]1C [Example 1-1]	–	–	340 nM
C=CC(=O)N1C[C@H](C)N(C2=NS(=O)(=O)N(c3c(C)cnn3C(C)C)c3nc(-c4ccccc4F)c(Cl)cc32)C[C@H]1C (single isomer, unassigned) [Example 1-11-2]	150 nM	–	330 nM
C=CC(=O)N1CCN(C2=NS(=O)(=O)N(c3ccc(CN(C)C)cc3C(C)C)c3nc(-c4ccccc4F)c(Cl)cc32)[C@@H](C)C1 [Example 3-1, 1-((3S)-4-(6-Chloro-1-(4-((dimethylamino)methyl)-2-(2-propanyl)phenyl)-7-(2-fluorophenyl)-2,2-dioxido-1H-pyrido[2,3-c][1,2,6]thiadiazin-4-yl)-3-methyl-1-piperazinyl)-2-propen-1-one]	150 nM	90 nM	–
C=CC(=O)N1C[C@H](C)N(C2=NS(=O)(=O)N(c3c(N)ncnc3C(C)C)c3nc(-c4ccccc4F)c(Cl)cc32)C[C@H]1C [Example 9]	250 nM	–	150 nM
C=CC(=O)N1C[C@H](C)N(C2=NS(=O)(=O)N(c3c(C)cnn3C(C)C)c3nc(-c4ccccc4F)c(Cl)cc32)C[C@H]1C [Example 1-11, 1-((2R,5S)-4-(6-chloro-7-(2-fluorophenyl)-1-(4-methyl-1-(2-propanyl)-1H-pyrazol-5-yl)-2,2-dioxido-1H-pyrido[2,3-c][1,2,6]thiadiazin-4-yl)-2,5-dimethyl-1-piperazinyl)-2-propen-1-one]	200 nM	200 nM	–
C=CC(=O)N1C[C@H](C)N(C2=NS(=O)(=O)N(c3ccccc3C(C)C)c3nc(-c4ccccc4F)c(Cl)cc32)C[C@H]1C [Example 2-3, 1-((2R,5S)-4-(6-chloro-7-(2-fluorophenyl)-1-(2-isopropylphenyl)-2,2-dioxido-1H-pyrido[2,3-c][1,2,6]thiadiazin-4-yl)-2,5-dimethylpiperazin-1-yl)prop-2-en-1-one]	180 nM	240 nM	–
C=CC(=O)N1CCN(C2=NS(=O)(=O)N(c3ccccc3C(C)C)c3nc(-c4ccccc4S(C)(=O)=O)c(Cl)cc32)[C@@H](C)C1 [Example 1-9, 1-((3S)-4-(6-chloro-7-(2-(methylsulfonyl)phenyl)-2,2-dioxido-1-(2-(2-propanyl)phenyl)-1H-pyrido[2,3-c][1,2,6]thiadiazin-4-yl)-3-methyl-1-piperazinyl)-2-propen-1-one]	190 nM	180 nM	–
C=CC(=O)N1CCN(C2=NS(=O)(=O)N(c3c(C)ccnc3C(C)C)c3nc(-c4ccccc4F)c(Cl)cc32)[C@@H](C)C1 (single isomer, unassigned) [Example 2-2-2]	2980 nM	–	1520 nM
C=CC(=O)N1CCN(C2=NS(=O)(=O)N(c3ccccc3C(C)C)c3nc(-c4c(O)cccc4F)c(Cl)cc32)[C@@H](C)C1 [Example 1-2, 1-((3S)-4-(6-chloro-7-(2-fluoro-6-hydroxyphenyl)-2,2-dioxido-1-(2-(2-propanyl)phenyl)-1H-pyrido[2,3-c][1,2,6]thiadiazin-4-yl)-3-methyl-1-piperazinyl)-2-propen-1-one]	150 nM	270 nM	–
C=CC(=O)N1C[C@H](C)N(C2=NS(=O)(=O)N(c3c(C)ccnc3C(C)C)c3nc(-c4ccccc4C)c(Cl)cc32)C[C@H]1C (single isomer, unassigned) [Example 1-12-1]	220 nM	290 nM	–
C=CC(=O)N1CCN(C2=NS(=O)(=O)N(c3c(C(C)C)ncnc3C(C)C)c3nc(-c4ccccc4F)c(Cl)cc32)[C@@H](C)C1 [Example 2-4, (S)-1-(4-(6-chloro-1-(4,6-diisopropylpyrimidin-5-yl)-7-(2-fluorophenyl)-2,2-dioxido-1H-pyrido[2,3-c][1,2,6]thiadiazin-4-yl)-3-methylpiperazin-1-yl)prop-2-en-1-one]	290 nM	310 nM	–
C=CC(=O)N1C[C@H](C)N(C2=NS(=O)(=O)N(c3ccc(CN(C)C)cc3C3CC3)c3nc(-c4ccccc4F)c(Cl)cc32)C[C@H]1C [Example 6, 1-((2R,5S)-4-(6-Chloro-1-(2-cyclopropyl-4-((dimethylamino)methyl)phenyl)-7-(2-fluorophenyl)-2,2-dioxido-1H-pyrido[2,3-c][1,2,6]thiadiazin-4-yl)-2,5-dimethyl-1-piperazinyl)-2-propen-1-one]	150 nM	150 nM	–
C=CC(=O)N1C[C@H](C)N(C2=NS(=O)(=O)N(c3c(C)cc(CN(C)C)cc3C(C)C)c3nc(-c4c(N)cccc4F)c(Cl)cc32)C[C@H]1C [Example 8, 1-((2R,5S)-4-(7-(2Amino-6-fluorophenyl)-6-chloro-1-(4-((dimethylamino)methyl)-2-methyl-6-(2-propanyl)phenyl)-2,2-dioxido-1H-pyrido[2,3-c][1,2,6]thiadiazin-4-yl)-2,5-dimethyl-1-piperazinyl)-2-propen-1-one]	190 nM	–	270 nM
C=CC(=O)N1C[C@H](C)N(C2=NS(=O)(=O)N(c3c(C)cc(CN(C)C)cc3C(C)C)c3nc(-c4c(N)cccc4F)c(Cl)cc32)C[C@H]1C [Example 8-1, 1-((2R,5S)-4-(7-(2-amino-6-fluorophenyl)-6-chloro-1-(4-((dimethylamino)methyl)-2-methyl-6-(2-propanyl)phenyl)-2,2-dioxido-1H-pyrido[2,3-c][1,2,6]thiadiazin-4-yl)-2,5-dimethyl-1-piperazinyl)-2-propen-1-one]	80 nM	–	80 nM
C=CC(=O)N1CCN(C2=NS(=O)(=O)N(c3c(C)ccnc3C(C)C)c3nc(-c4ccccc4F)c(Cl)cc32)[C@@H](C)C1 (single isomer, unassigned) [Example 2-2-1]	240 nM	–	270 nM
C=CC(=O)N1CCN(C2=NS(=O)(=O)N(c3ccccc3C(C)C)c3nc(-c4c(N)cccc4F)c(Cl)cc32)[C@@H](C)C1 [Example 1-3, 1-((3S)-4-(7-(2-amino-6-fluorophenyl)-6-chloro-2,2-dioxido-1-(2-(2-propanyl)phenyl)-1H-pyrido[2,3-c][1,2,6]thiadiazin-4-yl)-3-methyl-1-piperazinyl)-2-propen-1-one]	60 nM	70 nM	–
C=CC(=O)N1C[C@H](C)N(C2=NS(=O)(=O)N(c3ccccc3C(C)C)c3nc(-c4c(O)cccc4F)c(Cl)cc32)C[C@H]1C [Example 1-4, 1-((2R,5S)-4-(6-chloro-7-(2-fluoro-6-hydroxyphenyl)-2,2-dioxido-1-(2-(2-propanyl)phenyl)-1H-pyrido[2,3-c][1,2,6]thiadiazin-4-yl)-2,5-dimethyl-1-piperazinyl)-2-propen-1-one]	170 nM	160 nM	–
C=CC(=O)N1C[C@H](C)N(C2=NS(=O)(=O)N(c3ccccc3C(C)(C)C)c3nc(-c4c(N)cccc4F)c(Cl)cc32)C[C@H]1C (single isomer, unassigned) [Example 1-8-1]	10 nM	–	–
